Measurements taken from US20120041195A1, “Heterocyclic compounds” (FOVEA PHARMACEUTICALS, priority 2009, published 2012).

Key:
[1] = Solubility in aqueous medium (buffer pH 5); assay type: physicochemical; conditions: acetic acid/KOH buffer pH 5, stirred 24 h at room temperature, HPLC/UV of supernatant
Protocol: Solubility of Compounds was determined in aqueous medium using the following procedure.
Two mg of Compound (2 mg) was added to 200 μl buffer (acetic acid/KOH) solution at pH 5. Solution was then stirred for 24 h at room temperature and then centrifuged 10 min at 16,000 rpm. Corresponding supernatants were analyzed by HPLC and UV detection. Calculation of a given Compound concentration was performed by reporting area under the experimental slope onto a calibration slope obtained separately using DMSO-solubilised Compound at different concentrations.

Colour of compound = assay type: physicochemical
[2] = test system: VEGF-induced blood-retinal barrier breakdown; assay: Inhibition of vascular leakage in a rat model of blood-retinal barrier breakdown; assay type: in vivo; conditions: intravitreal VEGF164 100 ng, 0.58% (5.8 mg/ml buffer pH 5) topical 10 μl six times over 27 h, Evans blue in retina
Protocol: We investigated the efficacy of topical administration of compound 5 of the invention in reducing the retinal leakage in a VEGF-induced blood-retinal barrier breakdown in the rat. Rats were treated by a single intravitreal injection of 5 μl (100 ng) recombinant rat VEGF164 (RD systems) into each eye.
During twenty-seven hours following VEGF injection, 0.58% test compound 5 of the invention (5.8 mg/ml buffer pH 5) and control without compound of the invention were administered six times by topical administration (10 μl) in eyes of sixteen rats.
Twenty-seven hours after the VEGF challenge, Evans blue dye (45 mg/kg) was injected intravenously and the dye was allowed to circulate during two hours.
Then, each rat was infused with 0.05M citrate buffer pH 3.5 (37° C.) for 2 minutes to allow clearance of the dye. Immediately after said perfusion, both eyes were enucleated and Evans blue dye was extracted by incubating each retina in formamide (Qaum et al Invest. Ophthalmol. Vis. Sci. 2001, Vol 42, No 10). Afterward, the absorbance was measured with a spectrophotometer at 620 nm.
Breakdown of the blood-retinal barrier was proportional to the concentration of Evans blue in the retina normalized by Evans blue concentrations in the plasma.

Soiubility (pH 5) in mg/ml [1]	Solubility (pH 5) in % [1]	Colour (Colour of compound)	Structure (SMILES)	reduction of vascular leakage compared to control [2]
0.2 mg/ml	0.02%	Colourless	Oc1ccc(Cl)c(-c2ccc3nc(Nc4cccc(OCCN5CCOCC5)c4)nn3c2)c1 [compound 12, 4-Chloro-3-{2-[3-(2-morpholin-4-yl-ethoxy)-phenylamino]-[1,2,4]triazolo[1,5-a]pyridin-6-yl}-phenol]	–
2 mg/ml	0.2%	Colourless	Cl.Oc1ccc(Cl)c(-c2ccn3nc(Nc4ccc(OCCN5CCCC5)cc4)nc3c2)c1 [compound 10, 4-Chloro-3-{2-[4-(2-pyrrolidin-1-yl-ethoxy)-phenylamino]-[1,2,4]triazolo[1,5-a]pyridin-7-yl}-phenol, hydrochloride]	–
0.7 mg/ml	0.07%	Colourless	CN(C)CCOc1cccc(Nc2nc3ccc(-c4cc(O)ccc4Cl)cn3n2)c1 [compound 15, 4-Chloro-3-{2-[3-(2-dimethylamino-ethoxy)-phenylamino]-[1,2,4]triazolo[1,5-a]pyridin-6-yl}-phenol]	–
1 mg/ml	0.1%	Colourless	Cc1cc(-c2cc(O)ccc2Cl)cn2nc(Nc3ccc(OCCN4CCCC4)cc3)nc12.Cl [compound 9, 4-Chloro-3-{8-methyl-2-[4-(2-pyrrolidin-1-yl-ethoxy)-phenylamino]-[1,2,4]triazolo[1,5-a]pyridin-6-yl}-phenol, hydrochloride]	–
0.1 mg/ml	0.01%	Colourless	Oc1ccc(Cl)c(-c2ccc3nc(Nc4cccc(OCCN5CCCC5)c4)nn3c2)c1 [compound 16, 4-Chloro-3-{2-[3-(2-pyrrolidin-1-yl-ethoxy)-phenylamino]-[1,2,4]triazolo[1,5-a]pyridin-6-yl}-phenol]	–
0.22 mg/ml	0.022%	Colourless	O=C1N(CCN2CCCC2)CCN1c1ccc(Nc2nc3ccc(-c4cc(O)ccc4Cl)cn3n2)cc1 [compound 7, 1-{4-[6-(2-Chloro-5-hydroxy-phenyl)-[1,2,4]triazolo[1,5-a]pyridin-2-ylamino]-phenyl}-3-(2-pyrrolidin-1-yl-ethyl)-imidazolidin-2-one]	–
5.4 mg/ml	0.3%	Colourless	Cl.Oc1ccc(Cl)c(-c2ccc3nc(Nc4ccc(OCCN5CCCC5)cc4)nn3c2)c1 [compound 5, 4-Chloro-3-{2-[4-(2-pyrrolidin-1-yl-ethoxy)-phenylamino]-[1,2,4]triazolo[1,5-a]pyridin-6-yl}-phenol, hydrochloride]	71%
>10 mg/ml	>1%	Colourless	CN(C)CCOc1ccc(Nc2nc3ccc(-c4cc(O)ccc4Cl)cn3n2)cc1 [compound 14, 4-Chloro-3-{2-[4-(2-dimethylamino-ethoxy)-phenylamino]-[1,2,4]triazolo[1,5-a]pyridin-6-yl}-phenol]	–

Structure (SMILES)	Soiubility (pH 5) in mg/ml [1]	Solubility (pH 5) in % [1]	Colour (Colour of compound)	reduction of vascular leakage compared to control [2]
CN(C)[C@@H]1CCN(C(=O)COc2ccc(Nc3nc4ccc(-c5cc(O)ccc5Cl)cn4n3)cc2)C1.Cl [compound 6, 2-{4-[6-(2-Chloro-5-hydroxy-phenyl)-[1,2,4]triazolo[1,5-a]pyridin-2-ylamino]-phenoxy}-1-((R)-3-dimethylamino-pyrrolidin-1-yl)-ethanone, hydrochloride]	0.9 mg/ml	0.1%	Colourless	–
